According to patent US20250281462A1, “THERAPEUTICALLY EFFECTIVE ORAL ADMINISTRATION OF A 2 ARYLBENZIMIDAZOLE” (Tranquis Therapeutics, Inc., priority 2021, published 2025):
Entries after “also recorded” stand apart in the source; their conditions may differ.

Columns and labels:
[1] = system: TNFα; experiment: TNFα release by LPS-stimulated BV2 cells (ELISA); format: cell-based, murine
Method: First, 100 μL of supernatant was removed from Cell Plate and transferred to a Dilution Plate, which was then centrifuged at 216×g for 10 minutes to remove particulates. The dilution plate was either assayed immediately or aliquots were taken and stored at ≤−20° C.; repeated freeze-thaw cycles were avoided.
Next, a standard curve was prepared by first pipetting 900 ul of Calibrator Diluent RD5K into the […] tube, followed by 200 μl of the appropriate calibrator diluent in the remaining tubes. The stock solution was used to produce a dilution. The resulting tubes were then thoroughly mixed. The Mouse TNFα Standard ([…]) served as the high standard, and the Calibrator Diluent RD5T served as the zero standard at 0 pg/ml.
Assay Diluent RD1-63 (50 uL) was then added to the center of each well and mixed before and during its use. Then, 50 ul of either standard, control, or sample was added to the center of each well, and covered with adhesive strip. […]
Substrate solution (100 uL) was then added to each well, incubated in the dark for 30 minutes at room temperature, followed by addition of 100 μl of Stop Solution and mixed. The optical density of each well was determined within 30 minutes by using a microplate reader set to 450 nm.
Plates were read on a Spectrostar Nano machine with built-in MARS data analysis at […] and 570 nM. […]

[2] = Plasma concentrations after single intravenous dose in mice; format: in vivo; conditions: male, CD-1, mouse, 0.5 mg/kg intravenous, read-out: Terminal elimination half life (converted)
Method: Three male 7-9 week old male CD-1 mice from Lingchang were treated intravenously with 0.5 mg/kg of TQS-168. TQS-168 was prepared in solution of 31.6% DMAC+36.8% Ethanol+31.6% Propylene glycol. Blood was collected at 0.5, 3, 10, 30, 60, 120, 240, 480 and 720 minutes after a single dose of TQS-168 and then processed. Blood samples were collected via saphenous vein puncture into a K2EDTA tube, centrifuged at 4° C. at 4600 rpm for 5 minutes and plasma collected and stored at less than −20° C. prior to being analyzed by LC-MS for TQS-168 concentrations. Data are presented as concentration and mean concentration of TQS-168 per volume of plasma (ng/mL), as shown in FIG. 10 (individual mice) and FIG. 11 (average), respectively.

[3] = system: IL-6; experiment: LPS-induced IL-6 secretion from BV2 cells (CBA assay); format: cell-based, murine; conditions: 1-20 μM
Method: (§1) Lipopolysaccharide (LPS) is a natural ligand of the TLR4/CD14 complex, which is highly expressed on myeloid cells
(§2) LPS was used to induce cytokine secretion from BV-2 cells. Cells were incubated with TQS-168 at various concentrations to assess whether TQS-168 could suppress the LPS-promoted release of various cytokines from in vitro cell cultures. Cytokine secretion was measured by cytometric bead array (CBA) fluorescence-activated cell sorting (FACS).
(§3) Briefly, a vial of BV2 frozen stock (1 million cells per ml in complete medium) was thawed into 10 mL of complete medium per vial for a total of 4 vials. The vials were then centrifuged at 1800 rpm for 3 minutes to wash away freezing media. The four vials were then pooled into 25 mL of complete medium. TQS-168 was prepared in DMSO.
(§4) Cells were incubated for 24 hours in the presence of medium (negative control), LPS (positive control), DMSO+LPS (positive control, controlling additionally for presence of DMSO in the TQS-168 stock solution), or LPS+TQS-168 at final concentrations of 1 μM, 5 μM, 10 μM, and 20 μM.
After the well plates were incubated overnight for 24 hours, they were centrifuged at 1800 rpm for 5 minutes. Next, 150 μl from each well was transferred to a new set of plates, of which 50 μl was used for CBA. […]

[4] = system: TNFα; experiment: LPS-induced TNFα secretion from BV2 cells (CBA assay); format: cell-based, murine; conditions: for suppression of TNFα production vs control: 100 ng/mL LPS 24 hours
Method: as §1, §2, §3, §4
After the well plates were incubated overnight for 24 hours, they were centrifuged at 1800 rpm for 5 minutes. Next, 150 μl from each well was transferred to a new set of plates, of which 50 μl was used for CBA. The plates were then centrifuged with the cells, followed by addition of 100 μL of DAPI (50 ml of PBS+10 μL of DAPI stock at 1:5000 dilution). The plates were then incubated in the dark for 5 minutes, followed by addition of 100 μL of PBS and centrifuged at 1800 rpm for 5 minutes. Finally, the plates were resuspended in 200 μL of PBS and tested.
Multiplexed cytometric bead array (CBA) assay was performed according to standard techniques to detect presence in the cell culture medium of secreted murine TNFα, IL-6, IFNγ, IL-12, monocyte chemoattractant protein 1 (MCP-1), and IL-10.
A total of 4-11 replicates of BV2 cultures in different conditions were investigated. […]

[5] = background statement; cited from earlier work
[6] = human, in vivo, 120 mg

| Compound | suppression of TNFα production ([1]; BV-2 cells, 0.3 ng/mL LPS, 10 μM TQS-168, ELISA, 24 hours) | inhibition at 10 µM ([1]; Mus musculus, BV-2, 24 h, read-out: inhibition of TNFα production) [%] | half-life [2] [min] | reduction of LPS-induced IL-6 secretion, dose response [3] | suppression of TNFα production vs control ([4]; 5 μM) | suppression of TNFα production vs control ([4]; 20 μM) | reduction of LPS-induced TNFα secretion, dose response ([4]; 1-20 μM) | solubility [5] | AR AUC [6] | AR Cmax [6] | T1/2 ([6]; male) [min] | Tmax ([6]; male) [min] | accumulation ratio based on AUC(0-tau) ([6]; male, 7 days) | accumulation ratio based on Cmax ([6]; male, 7 days) |
| --- | --- | --- | --- | --- | --- | --- | --- | --- | --- | --- | --- | --- | --- | --- |
| CC(C)(C)c1ccc(-c2nc3ccccc3[nH]2)cc1 [TQS-168, 2-(4-tert-butylphenyl)-1H-benzimidazole] | about 25% | ~35 | 8.4 | concentration-dependent; also recorded: dose-responsive inhibition | can suppress TNFα production; also recorded: inhibition of TNFα production | can suppress TNFα production; also recorded: inhibition of TNFα production | concentration-dependent; also recorded: dose-responsive inhibition | highly insoluble |  |  |  |  |  |  |
| CC(C)(C)c1ccc(-c2nc3cc(O)ccc3[nH]2)cc1 [TQS-621] |  |  |  |  |  |  |  |  | 1.46 | 1.03 | 612 | 105 | 1.46 | 1.30 |
